Consider six compounds from patent publication US10669235B2, “Indole derivatives and their use as protein kinase inhibitors” (RESPIVERT LIMITED, priority 2016, dated 2020).

Structures can show the parent of a compound that is named as a salt. Where two headings read alike, the source gives them in different places. Some results are limits rather than exact numbers.

In one data set the target is PDGFRβ (Homo sapiens (Human), UniProt P09619). The data set can be described thus: PDGF-BB induced phosphorylation of PDGFRβ in fibroblasts (MRC5, HTRF). It counts as cell-based. The note with it: MRC5 cells, PDGFBB stimulation; read-out: PDGFBB-induced PDGFRβ phosphorylation in MRC5 cells (IC50).
Sequence of PDGFRβ (P09619 33-1106): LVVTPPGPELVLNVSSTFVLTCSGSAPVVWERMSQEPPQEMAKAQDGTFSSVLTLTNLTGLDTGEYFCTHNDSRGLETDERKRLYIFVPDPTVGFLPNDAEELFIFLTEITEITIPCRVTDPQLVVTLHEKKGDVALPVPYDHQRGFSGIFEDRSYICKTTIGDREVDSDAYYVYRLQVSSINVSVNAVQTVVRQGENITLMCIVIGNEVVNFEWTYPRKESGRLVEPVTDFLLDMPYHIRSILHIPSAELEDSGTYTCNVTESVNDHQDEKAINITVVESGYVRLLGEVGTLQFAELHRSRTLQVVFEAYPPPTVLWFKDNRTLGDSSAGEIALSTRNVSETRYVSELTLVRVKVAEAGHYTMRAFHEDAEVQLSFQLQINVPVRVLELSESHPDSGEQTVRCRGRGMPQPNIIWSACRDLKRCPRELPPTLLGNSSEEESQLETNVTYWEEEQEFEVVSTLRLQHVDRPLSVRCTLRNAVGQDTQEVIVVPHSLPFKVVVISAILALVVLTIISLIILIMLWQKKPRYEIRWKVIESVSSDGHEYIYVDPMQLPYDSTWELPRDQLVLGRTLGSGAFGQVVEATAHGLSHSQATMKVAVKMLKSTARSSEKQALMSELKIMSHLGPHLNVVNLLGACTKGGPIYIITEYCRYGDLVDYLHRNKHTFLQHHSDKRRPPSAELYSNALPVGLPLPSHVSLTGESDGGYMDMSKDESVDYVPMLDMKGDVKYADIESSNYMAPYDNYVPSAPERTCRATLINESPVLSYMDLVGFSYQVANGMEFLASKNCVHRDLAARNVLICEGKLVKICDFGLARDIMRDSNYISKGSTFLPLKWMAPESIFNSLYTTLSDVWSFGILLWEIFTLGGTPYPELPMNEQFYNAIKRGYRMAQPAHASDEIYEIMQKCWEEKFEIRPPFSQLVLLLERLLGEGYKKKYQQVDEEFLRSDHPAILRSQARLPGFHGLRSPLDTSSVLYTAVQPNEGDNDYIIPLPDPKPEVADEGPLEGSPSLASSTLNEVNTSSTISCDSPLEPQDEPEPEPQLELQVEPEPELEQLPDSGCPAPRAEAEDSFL
The next data set is described as follows: PAMPA permeability assay. To be noted: pH 7, PAMPA; for Papp at 5 hr, 10 μM: pH 7, 10 μM. Format: in vitro ADME.
The next data set deals with MRC5 cells. The data set can be described thus: Cell viability assay in MRC5 cells (MTT).
Data set [1] in a line: Pharmacokinetic measurements in rats (i.v., i.t., oral). Format: in vivo. The note with it: rat; for concentration at 0.1 h: read-out: lung concentration (nM) at time 0.1 h; for concentration at 1.5 h: read-out: lung concentration (nM) at time 1.5 h; for concentration at 6 h: read-out: lung concentration (nM) at time 6 h; for concentration at 24 h: read-out: lung concentration (nM) at time 24 h.

Where [2] appears, read: i.t. dose 0.1 (nintedanib 0.42), 0.1 h.
[3] abbreviates: i.t. dose 0.1 (nintedanib 0.42), 1.5 h.
[4] abbreviates: i.t. dose 0.1 (nintedanib 0.42), 6 h.
Where [5] appears, read: i.t. dose 0.1 (nintedanib 0.42), 24 h.
The mark [6] stands for this setting: i.v. dose 0.1 (nintedanib 0.42), 0.1 h.
The mark [7] stands for this setting: i.v. dose 0.1 (nintedanib 0.42), 1.5 h.
[8] abbreviates: i.v. dose 0.1 (nintedanib 0.42), 6 h.
The mark [9] stands for this setting: i.v. dose 0.1 (nintedanib 0.42), 24 h.

Take `COC(=O)c1cc2c(cc1C)/C(=C(/Nc1ccc(S(=O)(=O)NCCN3CCN(C)CC3)cc1)c1ccccc1)C(=O)N2` [Example 1, (Z)-Methyl 5-methyl-3-(((4-(N-(2-(4-methylpiperazin-1-yl)ethyl)sulfamoyl)phenyl)amino)(phenyl)methylene)-2-oxoindoline-6-carboxylate, 0.8 formate]: at PDGFRβ, the IC50 is 25.6 nM. In “PAMPA permeability assay”, this compound showed a recovery at 5 hr, 10 μM of 92% and a Papp at 5 hr, 10 μM of 0.123 ×10⁻⁶ cm/s. Moreover, in the data set with MRC5 cells, the “Cell viability at 100 nM (%)” value amounted to 103.6%, the “Cell viability at 300 nM (%)” value turned out to be 89% and the “Cell viability at 1000 nM (%)” value is 68.7%.
Regarding `COC(=O)c1cc2c(cc1C)/C(=C(/Nc1ccc(C(=O)NCCN3CCC(N(C)C)CC3)cc1)c1ccccc1)C(=O)N2` [Example 6, (Z)-Methyl 3-(((4-((2-(4-(dimethylamino)piperidin-1-yl)ethyl)carbamoyl)phenyl)amino) (phenyl)methylene)-5-methyl-2-oxoindoline-6-carboxylate, formate], at PDGFRβ, the IC50 came to 13.2 nM. In addition, the “Lung conc i.t./i.v. Ratio at time 0.1 h” value in data set [1] (0.1 h) was determined as 9.8. For the same compound, the “Lung conc i.t./i.v. Ratio at time 1.5 h” value in data set [1] (1.5 h) is 8.0. Moreover, in data set [1] (6 h), the “Lung conc i.t./i.v. Ratio at time 6 h” value was determined as 8.3. Besides, in data set [1] (24 h), the “Lung conc i.t./i.v. Ratio at time 24 h” value was found to be 7.7. In addition, in data set [1] (setting [2]), the “BAL % administered dose at time 0.1 h” value was determined as 14%, the “lung/plasma conc ratio at time 0.1 h” value was 472 and the concentration at 0.1 h worked out at 9826 nM. Besides, in data set [1] (setting [3]), the “BAL % administered dose at time 1.5 h” value is 0.9%, the “lung/plasma conc ratio at time 1.5 h” value is on record as over 4452 and the concentration at 1.5 h was 7568 nM. In data set [1] (setting [4]), the “BAL % administered dose at time 6 h” value is listed as 1.1%, the “lung/plasma conc ratio at time 6 h” value is over 4597 and the concentration at 6 h is reported as 7815 nM. Further, in data set [1] (setting [5]), the “BAL % administered dose at time 24 h” value was determined as 0.9%, the “lung/plasma conc ratio at time 24 h” value is on record as over 3787 and the concentration at 24 h came to 6438 nM. In data set [1] (setting [6]), the “BAL % administered dose at time 0.1 h” value was “BQL”, the “lung/plasma ratio at time 0.1 h” value stood at 77 and the concentration at 0.1 h came out at 1002 nM. For the same compound, in data set [1] (setting [7]), the “BAL % administered dose at time 1.5 h” value is listed as “BQL”, the “lung/plasma ratio at time 1.5 h” value is over 558 and the concentration at 1.5 h is given as 949 nM. Moreover, in data set [1] (setting [8]), the “BAL % administered dose at time 6 h” value is listed as “BQL”, the “lung/plasma ratio at time 6 h” value is listed as over 552 and the concentration at 6 h was 939 nM. In addition, in data set [1] (setting [9]), the “BAL % administered dose at time 24 h” value is “BQL”, the “lung/plasma ratio at time 24 h” value was over 492 and the concentration at 24 h is recorded as 837 nM. In “PAMPA permeability assay”, this compound had a recovery at 5 hr, 10 μM of 56.5% and an apparent permeability (Papp) at 5 hr, 10 μM of 0.012 ×10⁻⁶ cm/s. Further, in the data set on MRC5 cells, the “Cell viability at 100 nM (%)” value is 102.3%, the “Cell viability at 300 nM (%)” value worked out at 98.9% and the “Cell viability at 1000 nM (%)” value is given as 91.2%.
For `COC(=O)c1cc2c(cc1C)/C(=C(/Nc1ccc(C(=O)NCC(=O)N3CCN(C)CC3)cc1)c1ccccc1)C(=O)N2` [Example 8, (Z)-Methyl 5-methyl-3-(((4-((2-(4-methylpiperazin-1-yl)-2-oxoethyl)carbamoyl)phenyl)amino) (phenyl)methylene)-2-oxoindoline-6-carboxylate, 0.5 formate], the IC50 at PDGFRβ worked out at 12 nM. In the data set “PAMPA permeability assay”, this compound registered a recovery at 5 hr, 10 μM of 87.8% and a Papp at 5 hr, 10 μM of 0.156 ×10⁻⁶ cm/s. Also, in the data set with MRC5 cells, the “Cell viability at 100 nM (%)” value amounted to 110.4%, the “Cell viability at 300 nM (%)” value amounted to 108.2% and the “Cell viability at 1000 nM (%)” value is 77.7%.
In the case of `COC(=O)c1cc2c(cc1C)/C(=C(/Nc1ccc(C(=O)NCCN3CCC(O)CC3)cc1)c1ccccc1)C(=O)N2` [Example 12, (Z)-Methyl 3-(((4-((2-(4-hydroxypiperidin-1-yl)ethyl)carbamoyl)phenyl)amino)(phenyl)methylene)-5-methyl-2-oxoindoline-6-carboxylate, 0.8 formate], the IC50 on PDGFRβ was determined as 4.23 nM. In the data set “PAMPA permeability assay”, this compound yielded a recovery at 5 hr, 10 μM of 87.7% and a Papp at 5 hr, 10 μM of 0.00638 ×10⁻⁶ cm/s. For the same compound, in the data set with MRC5 cells, the “Cell viability at 100 nM (%)” value is given as 92.2%, the “Cell viability at 300 nM (%)” value is given as 105.5% and the “Cell viability at 1000 nM (%)” value is listed as 93.4%.
`COC(=O)c1cc2c(cc1C)/C(=C(/Nc1ccc(C(=O)NCCN(C)CCO)cc1)c1ccccc1)C(=O)N2` [Example 51, (Z)-Methyl 3-(((4-((2-((2-hydroxyethyl)(methyl)amino)ethyl)carbamoyl)phenyl)amino)(phenyl)methylene)-5-methyl-2-oxoindoline-6-carboxylate]: the IC50 on PDGFRβ came out at 6.71 nM. Further, in the data set on MRC5 cells, the “Cell viability at 100 nM (%)” value was 113%, the “Cell viability at 300 nM (%)” value is recorded as 95.5% and the “Cell viability at 1000 nM (%)” value is on record as 83.8%.
In the case of `COC(=O)c1cc2c(cc1C)/C(=C(/Nc1ccc(C(=O)NCCN3CCS(=O)(=O)CC3)cc1)c1ccccc1)C(=O)N2` [Example 52, (Z)-Methyl 3-(((4-((2-(1,1-dioxidothiomorpholino)ethyl)carbamoyl)phenyl)amino)(phenyl)methylene)-5-methyl-2-oxoindoline-6-carboxylate], the IC50 on PDGFRβ came out at 5.49 nM. In the data set on MRC5 cells, the “Cell viability at 100 nM (%)” value is on record as 81.3%, the “Cell viability at 300 nM (%)” value came out at 81.2% and the “Cell viability at 1000 nM (%)” value is reported as 85.9%.
